The results in this text go back to US8053453B2, “Pyrazolone compounds and thrombopoietin receptor activator” (Nissan Chemical Industries, Ltd., priority 2002, dated 2011).

Assay [1] deals with T1, human TPO receptor (Homo sapiens, UniProt P40238).
T1 construct: expressed in transfected cells
T1 sequence (P40238 26-635): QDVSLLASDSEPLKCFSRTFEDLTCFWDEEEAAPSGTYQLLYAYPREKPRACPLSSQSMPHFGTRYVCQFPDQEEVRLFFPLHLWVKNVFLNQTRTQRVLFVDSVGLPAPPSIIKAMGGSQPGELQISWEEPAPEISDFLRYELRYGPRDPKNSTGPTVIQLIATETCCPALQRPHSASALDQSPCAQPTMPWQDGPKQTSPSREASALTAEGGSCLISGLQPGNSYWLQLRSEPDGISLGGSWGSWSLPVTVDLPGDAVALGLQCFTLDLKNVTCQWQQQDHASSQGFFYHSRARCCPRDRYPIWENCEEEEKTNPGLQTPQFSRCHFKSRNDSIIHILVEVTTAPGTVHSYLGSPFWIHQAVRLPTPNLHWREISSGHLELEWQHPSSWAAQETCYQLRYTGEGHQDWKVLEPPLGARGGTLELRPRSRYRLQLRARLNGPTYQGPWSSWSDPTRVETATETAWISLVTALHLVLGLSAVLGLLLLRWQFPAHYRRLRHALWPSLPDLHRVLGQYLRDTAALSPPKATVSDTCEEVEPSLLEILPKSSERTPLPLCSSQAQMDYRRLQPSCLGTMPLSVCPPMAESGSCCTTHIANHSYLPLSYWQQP
In words: Proliferation of TPO-dependent cell line UT7/EPO-mpl, WST-8 reagent (Assay Example 5). In kind it is cell-based. Particulars: WST-8, 4 days. As to the method:
Human leukemic cell line UT7/EPO-mpl was washed twice with PBS and suspended in IMDM containing 10% FBS at a cell density of 6×10^4 cells/ml. The cell suspension was transferred to a 96-well tissue culture plate (CORNING) in 100-μl aliquots. Then either TPO or the following Synthetic Examples, each dissolved in DMSO, were diluted 83-fold with IMDM containing 10% FBS and added to the aforementioned cell suspension in 20-μl aliquots. The suspension was incubated in a CO2 incubator (5% CO2, 37° C.) for 4 days. Cell proliferation was assayed using WST-8 reagent (Kishida Chemical, Co. Ltd.) according to instructions by the manufacturer. A 10-μl aliquot of 5 mM WST-8 reagent solution was added to each well of the tissue culture plate and the plate was incubated at 37° C. for 4 h. The formazan pigment generated was detected by measuring the absorbance at 450 nm with a 96-well microplate reader (Nihon Molecular Devices, SpectraMax 190). The concentration of each compound that yields a growth rate corresponding to 50% of the growth of human leukemic cell line UT7/EPO-mpl observed in the presence of 10 ng/ml TPO (EC50T) and the maximal growth rate achieved by the same compound (efficacy), expressed by taking the value with human leukemic cell line UT7/EPO-mpl in the presence of 10 ng/ml TPO as 100% standard, are summarized in Table 9.
(In general: Formazan colour is commonly taken as a measure of viable cells.)

For assay [2], the target named is T1, human TPO receptor. The assay can be described thus: Proliferation of TPO-dependent cell line UT7/EPO-mpl, MTT method (Assay Examples 1, 3, 4). The assay is classed as cell-based. Particulars: UT7/EPO-mpl cells; for EC50: concentration giving 50% of the maximum cell growth observed with the same compound; for Efficacy (%) (maximal growth rate) / Emax: value in the presence of 10 ng/ml TPO taken as 100% standard, method of Assay Example 1; for Emax: read-out: Efficacy (%) (maximal growth rate). As to the method:
The reactivity of Synthetic Example 56, the compound of the present invention, with thrombopoietin (TPO) receptor was assayed using a human leukemic cell line, UT7/EPO-mpl.
UT7/EPO-mpl is a stable transformed cell line obtained by introducing into human leukemic cell line UT7/EPO a vector that induces expression of human TPO receptor (c-mp1) under control of a cytomegaloviral promoter by the method of Takatoku et al. (J. Biol. Chem., 272:7259-7263 (1997)). […] These two cell lines were subcultured in Iscove's modified Dulbecco's medium (IMDM; GIBCO) containing 10% fetal bovine serum (FBS; TRACE SCIENTIFIC) using a CO2 incubator (5% CO2, 37° C.).
The subcultured cells described above were washed twice with phosphate buffered saline (PBS) and suspended in IMDM containing 10% FBS at a cell density of 6×10^4 cells/ml. The cell suspension was transferred to a 96-well tissue culture plate (CORNING) in 100-μl aliquots. Then either TPO (PeproTech EC) or Synthetic Example 56 dissolved in dimethylsulfoxide (DMSO) was diluted 83-fold with IMDM containing 10% FBS and added to the aforementioned cell suspension in 20-μl aliquots. The suspension was incubated in a CO2 incubator (5% CO2, 37° C.) for 4 days. Cell proliferation was assayed according to the method of Mosmann et al. (J. Immunol. Methods, 65:55-63 (1983)). A 10-μl aliquot of 5 mg/ml MTT reagent (SIGMA) was added to each well of the tissue culture plate and the plate was incubated at 37° C. for 4 h. The formazan pigment generated was dissolved by adding 150 μl per well of 0.1 M HCl/isopropanol solution and the absorbance of the resulting pigment solution was measured at 550 nm with a 96-well microplate reader (BIO-RAD, M450).
The following Synthetic Examples were tested according to the method of Assay Example 1 to determine the maximal growth rate (efficacy), expressed by taking the value with human leukemic cell line UT7/EPO-mpl observed in the presence of 10 ng/ml TPO as 100% standard, and the concentration of each compound that yields a growth rate corresponding to 50% of the maximum cell growth observed with the same compound (EC50).
Synthetic Example 56, the compound of the present invention, and four compounds (Reference Synthetic Examples 1 to 4) described in a publication of international patent application (Publication No. WO01/34585, applied by SmithKline Beecham Corp.) were tested according to the method of Assay Example 1.

Where [3] appears, read: read-out: EC50 (ng/ml) (converted).

Where two headings read alike, the source gives them in different places.

Regarding `CC1=NN(c2ccc(C(F)(F)F)cn2)C(=O)C1=C(C)NNC(=O)c1ccc(C(=O)O)cc1` [compound 102], the “EC50T (concentration yielding 50% of the growth observed with 10 ng/ml TPO)” value in assay [1] was 0.069 µg/mL. Also, the “Efficacy (%) (maximal growth rate)” value in assay [1] (growth with 10 ng/ml TPO = 100%) was 100%.
As for `CC1=NN(c2ccccc2)C(=O)C1=C(C)NNC(=O)c1ccc(O)cc1` [compound 17], in assay [2], the “EC50” value turned out to be 0.079 µg/mL and the “Efficacy (%) (maximal growth rate)” value stood at 73%.
On the same counts, the results for `CC1=NN(c2ccc(C)c(C)c2)C(=O)C1=C(C)NNC(=O)c1cccc(O)c1` [compound 82] are 0.026 µg/mL and 84%.
The matching figures for `CC1=NN(c2ccc(I)cc2)C(=O)C1=C(C)NNC(=O)c1ccccc1[N+](=O)[O-]` [compound 42]: 0.25 µg/mL and 71%.
On the same counts, the results for `CC1=NN(c2ccc(C)c(C)c2)C(=O)C1=C(C)NNC(=O)c1ccc(O)cc1` [compound 54] are 0.0075 µg/mL and 61%.
For the molecule `CC1=NN(c2cccc(C(F)(F)F)c2)C(=O)C1=C(C)NNC(=O)c1ccc(N)cc1` [compound 90], in assay [2], the “EC50” value turned out to be 0.021 µg/mL and the “Efficacy (%) (maximal growth rate)” value was found to be 76%.
Turning to `CC1=NN(c2ccccc2)C(=O)C1=C(C)NNC(=O)c1ccc(O)c(O)c1` [compound 20], in assay [2], the “EC50” value was found to be 0.038 µg/mL and the “Efficacy (%) (maximal growth rate)” value turned out to be 91%.
As to `CC1=NN(c2ccccc2)C(=O)C1=C(C)NNC(=O)c1ccc([N+](=O)[O-])cc1` [compound 22], in assay [2], the “EC50” value is 0.19 µg/mL and the “Efficacy (%) (maximal growth rate)” value worked out at 50%.
The matching figures for `CC1=NN(c2ccccc2)C(=O)C1=C(C)NNC(=O)c1ccccc1O` [compound 16]: 0.061 µg/mL and 58%.
For the molecule `Cc1ccc(-n2nc(C)c(C=NN3CC(=O)N(c4ccc(C(=O)O)cc4)C3=S)c2O)cc1C` [Reference Synthetic Example 4, 3-(4-carboxyphenyl)-1-[(1-{3,4-dimethylphenyl}-5-hydroxy-3-methyl-1H-pyrazol-4-ylmethylene)amino]-2-thioxoimidazolidin-4-one, reference compound], the EC50 in assay [2] (setting [3]) was 3020 nM. Further, the Emax in assay [2] is 67%.
Consider `CC1=NN(c2ccccn2)C(=O)C1=C(C)NNC(=O)c1ccc(O)cc1O` [compound 87], for which, in assay [2], the “EC50” value is 0.6 µg/mL and the “Efficacy (%) (maximal growth rate)” value turned out to be 71%.
The matching figures for `CC1=NN(c2ccc(I)cc2)C(=O)C1=C(C)NNC(=O)c1ccc(O)cc1O` [compound 1]: 0.0074 µg/mL and 74%.
On the same counts, the results for `CC1=NN(c2ccc(C)c(C)c2)C(=O)C1=CNNC(=O)c1ccc(O)cc1O` [compound 93] are 0.0043 µg/mL and 84%.
On to `CC1=NN(c2cccc([N+](=O)[O-])c2)C(=O)C1=C(C)NNC(=O)c1cccc([N+](=O)[O-])c1` [compound 84], for which, in assay [2], the “EC50” value is 0.13 µg/mL and the “Efficacy (%) (maximal growth rate)” value was determined as 109%.
For the molecule `CC1=NN(c2cccc(C(F)(F)F)c2)C(=O)C1=C(C)NNC(=O)c1ccc(O)cc1` [compound 46], in assay [2], the “EC50” value was 0.015 µg/mL and the “Efficacy (%) (maximal growth rate)” value is reported as 82%.
On to `COC(=O)c1ccc(C(=O)NNC(C)=C2C(=O)N(c3ccc(C(C)(C)C)cc3)N=C2C)cc1` [compound 4], for which, in assay [2], the “EC50” value stood at 0.015 µg/mL and the “Efficacy (%) (maximal growth rate)” value is given as 53%.
With `CC1=NN(c2ccc(C)c(C)c2)C(=O)C1=C(C)NNC(=O)c1ccc([N+](=O)[O-])cc1` [compound 60], in assay [2], the “EC50” value came out at 0.1 µg/mL and the “Efficacy (%) (maximal growth rate)” value is 62%.
On to `CC1=NN(c2ccc(C)c(C)c2)C(=O)C1=C(C)NNC(=O)c1cccc([N+](=O)[O-])c1` [compound 59], for which the EC50 in assay [2] (setting [3]) was 58.9 nM. The Emax in assay [2] was 82%.
For `CC1=NN(c2ccc(C)c(C)c2)C(=O)C1=C(C)NNC(=O)c1ccc(C(C)(C)C)cc1` [compound 76], in assay [2], the “EC50” value amounted to 0.046 µg/mL and the “Efficacy (%) (maximal growth rate)” value is recorded as 79%.
The matching figures for `CC1=NN(c2cccc(C(F)(F)F)c2)C(=O)C1=C(C)NNC(=O)c1ccccc1O` [compound 45]: 0.03 µg/mL and 74%.
In the case of `CC1=NN(c2ccc(Cl)c(Cl)c2)C(=O)C1=C(C)NNC(=O)c1ccccc1O` [compound 61], in assay [2], the “EC50” value turned out to be 0.029 µg/mL and the “Efficacy (%) (maximal growth rate)” value came out at 91%.
For `CC1=NN(c2ccccc2)C(=O)C1=C(C)NNC(=O)c1ccccc1[N+](=O)[O-]` [compound 21], in assay [2], the “EC50” value was 0.29 µg/mL and the “Efficacy (%) (maximal growth rate)” value was 39%.
With `CC1=NN(c2ccc(Cl)c(Cl)c2)C(=O)C1=C(C)NNC(=O)c1cc2ccccc2cc1O` [compound 63], in assay [2], the “EC50” value came out at 0.19 µg/mL and the “Efficacy (%) (maximal growth rate)” value is given as 21%.
As for `CC1=NN(c2ccc(C)c(C)c2)C(=O)C1=C(C)NNC(=O)c1ccc(O)cc1O` [compound 56], in assay [2], the “EC50” value turned out to be 0.0011 µg/mL and the “Efficacy (%) (maximal growth rate)” value came to 96%.
On the same counts, the results for `CC1=NN(c2ccc(C)c(C)c2)C(=O)C1=C(C)NNC(=O)c1ccc(C(F)(F)F)cc1` [compound 75] are 0.063 µg/mL and 89%.
In the case of `CC1=NN(c2cccc([N+](=O)[O-])c2)C(=O)C1=C(C)NNC(=O)c1ccc(C(C)(C)C)cc1` [compound 88], in assay [2], the “EC50” value is 0.13 µg/mL and the “Efficacy (%) (maximal growth rate)” value was determined as 70%.
On the same counts, the results for `CC1=NN(c2ccc(I)cc2)C(=O)C1=C(C)NNC(=O)c1ccccc1O` [compound 38] are 0.036 µg/mL and 93%.
As to `CC1=NN(c2ccc(Cl)c(Cl)c2)C(=O)C1=C(C)NNC(=O)c1cccc(O)c1` [compound 83], in assay [2] (setting [3]), the EC50 is 14.5 nM. Moreover, the Emax in assay [2] worked out at 78%.
On the same counts, the results for `COC(=O)c1ccc(C(=O)NNC(C)=C2C(=O)N(c3cccc(C(F)(F)F)c3)N=C2C)cc1` [compound 8] are 67.3 nM and 52%.
